Test results taken from ChEMBL document CHEMBL1152357, “Synthesis and biological activity of heteroaryl 3-(1,1-dioxo-2H-(1,2,4)-benzothiadizin-3-yl)-4-hydroxy-2(1H)-quinolinone derivatives as hepatitis C virus NS5B polymerase inhibitors” (Bioorg Med Chem Lett, 2009).

Experiments:
Hepatitis C virus [1] = assay: Antiviral activity against HCV 1b infected in human hepatoma cells by replicon assay; type: functional, organism-based, Hepacivirus hominis; details: genotype 1b
Albumin = Albumin (Homo sapiens, UniProt P02768); assay: Binding affinity to human serum albumin; type: ADME; details: isolated protein
Hepatitis C virus [2] = assay: Inhibition of HCV 1b NS5B polymerase expressed in Sf9 cells; set-up: species or system Hepatitis C virus subtype 1b

Sequence of Albumin (P02768 whole entry): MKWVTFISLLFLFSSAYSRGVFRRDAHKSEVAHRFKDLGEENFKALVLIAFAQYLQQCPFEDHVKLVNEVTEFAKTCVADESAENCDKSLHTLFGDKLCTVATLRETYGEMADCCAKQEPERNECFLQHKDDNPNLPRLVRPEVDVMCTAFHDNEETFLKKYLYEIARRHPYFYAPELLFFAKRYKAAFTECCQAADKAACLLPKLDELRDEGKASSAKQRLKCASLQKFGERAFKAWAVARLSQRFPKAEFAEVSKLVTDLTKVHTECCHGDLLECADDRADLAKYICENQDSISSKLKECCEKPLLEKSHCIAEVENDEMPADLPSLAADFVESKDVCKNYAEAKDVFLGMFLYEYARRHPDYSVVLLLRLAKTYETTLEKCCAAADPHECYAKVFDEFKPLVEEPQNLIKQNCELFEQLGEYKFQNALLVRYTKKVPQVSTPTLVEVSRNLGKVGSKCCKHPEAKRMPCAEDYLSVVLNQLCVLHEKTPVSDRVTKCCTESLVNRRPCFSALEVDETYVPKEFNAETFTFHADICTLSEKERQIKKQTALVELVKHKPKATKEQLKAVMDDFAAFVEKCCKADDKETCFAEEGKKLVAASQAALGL

## CC(C)CCn1c(=O)c(C2=NS(=O)(=O)c3ccccc3N2)c(O)c2ccccc21
Hepatitis C virus [1]
  IC50: 417 nM
Albumin
  Activity: > 99.9%

## CC(C)CCn1c(=O)c(C2=NS(=O)(=O)c3ccccc3N2)c(O)c2cccnc21
Hepatitis C virus [2]
  IC50: 212 nM
Hepatitis C virus [1]
  IC50: 1360 nM
Albumin
  Activity: > 99.9%

## CC(C)CCn1c(=O)c(C2=Nc3ccc(OCC(N)=O)cc3S(=O)(=O)N2)c(O)c2cccnc21
Hepatitis C virus [2]
  IC50: < 5 nM
Hepatitis C virus [1]
  IC50: 52 nM
Albumin
  Activity: 98.4%

## CC(C)CCn1c(=O)c(C2=NS(=O)(=O)c3cc(O)ccc3N2)c(O)c2cccnc21
Hepatitis C virus [2]
  IC50: 16 nM
Hepatitis C virus [1]
  IC50: 473 nM
Albumin
  Activity: 99%

## CCN1CCC2=C(C1)S(=O)(=O)N=C(c1c(O)c3ccccc3n(CCC(C)C)c1=O)N2
Hepatitis C virus [2]
  IC50: 679 nM
Hepatitis C virus [1]
  IC50: 40000 nM
Albumin
  Activity: 97.9%

## CC(C)CCn1c(=O)c(C2=NS(=O)(=O)C3=C(CCN(CCc4nnn[nH]4)C3)N2)c(O)c2ccccc21
Hepatitis C virus [2]
  IC50: 289 nM
Hepatitis C virus [1]
  IC50: > 30000 nM
Albumin
  Activity: 98.7%

## CC(C)CCn1c(=O)c(C2=NS(=O)(=O)c3cc(OCC(N)=O)ccc3N2)c(O)c2ccsc21
Hepatitis C virus [2]
  IC50: < 5 nM
Hepatitis C virus [1]
  IC50: 238 nM
Albumin
  Activity: 98.7%

## CC(=O)N1CCC2=C(C1)S(=O)(=O)N=C(c1c(O)c3ccccc3n(CCC(C)C)c1=O)N2
Hepatitis C virus [2]
  IC50: 1530 nM
Albumin
  Activity: 98%

## CC(C)CCn1c(=O)c(C2=NS(=O)(=O)c3ccccc3N2)c(O)c2cnn(C)c21
Hepatitis C virus [2]
  IC50: 3340 nM
Albumin
  Activity: 97%

## CSc1ncc2c(O)c(C3=NS(=O)(=O)c4ccccc4N3)c(=O)n(CCC(C)C)c2n1
Hepatitis C virus [2]
  IC50: > 30000 nM

## CC(C)CCn1c(=O)c(C2=NS(=O)(=O)c3ccccc3N2)c(O)c2cc(Br)sc21
Hepatitis C virus [2]
  IC50: 1170 nM
Albumin
  Activity: > 99.9%

## CC(C)CCn1c(=O)c(C2=NS(=O)(=O)C3=C(CCN(CCCN)C3)N2)c(O)c2ccccc21
Hepatitis C virus [2]
  IC50: 728 nM
Albumin
  Activity: 98.3%

## CC(C)CCn1c(=O)c(C2=NS(=O)(=O)C3=C(CCN(CCC(N)=O)C3)N2)c(O)c2ccccc21
Hepatitis C virus [2]
  IC50: 288 nM
Hepatitis C virus [1]
  IC50: > 20000 nM
Albumin
  Activity: 98%

## CC(C)CCn1c(=O)c(C2=NS(=O)(=O)c3ccsc3N2)c(O)c2ccccc21
Hepatitis C virus [2]
  IC50: 20 nM
Hepatitis C virus [1]
  IC50: 2890 nM
Albumin
  Activity: 99.5%

## CC(C)CCn1c(=O)c(C2=NS(=O)(=O)c3cccnc3N2)c(O)c2ccccc21
Hepatitis C virus [2]
  IC50: 51 nM
Hepatitis C virus [1]
  IC50: 1680 nM

## CC(C)CCn1c(=O)c(C2=NS(=O)(=O)c3cc(O)ccc3N2)c(O)c2sccc21
Hepatitis C virus [2]
  IC50: 16 nM
Hepatitis C virus [1]
  IC50: 1190 nM
Albumin
  Activity: 99%

## CC(C)CCn1c(=O)c(C2=NS(=O)(=O)c3ccccc3N2)c(O)c2sccc21
Hepatitis C virus [2]
  IC50: > 48 nM
Hepatitis C virus [1]
  IC50: 942 nM
Albumin
  Activity: > 99.9%

## COC(=O)CN1CCC2=C(C1)S(=O)(=O)N=C(c1c(O)c3ccccc3n(CCC(C)C)c1=O)N2
Hepatitis C virus [2]
  IC50: 879 nM
Albumin
  Activity: 97.6%

## CC(C)CCn1c(=O)c(C2=NS(=O)(=O)c3c(cc[nH]c3=O)N2)c(O)c2ccccc21
Hepatitis C virus [2]
  IC50: 16 nM
Hepatitis C virus [1]
  IC50: 13700 nM

## CC(C)CCn1c(=O)c(C2=NS(=O)(=O)C3=C(CCN(C(=O)Nc4ccccc4)C3)N2)c(O)c2ccccc21
Hepatitis C virus [2]
  IC50: 975 nM
Albumin
  Activity: 99.4%

## O=c1c(C2=NS(=O)(=O)c3cc(O)ccc3N2)c(O)c2cccnc2n1CCC1CC1
Hepatitis C virus [2]
  IC50: 12 nM
Hepatitis C virus [1]
  IC50: 542 nM
Albumin
  Activity: 98.8%

## CC(C)CCn1c(=O)c(C2=NS(=O)(=O)c3cnccc3N2)c(O)c2ccccc21
Hepatitis C virus [2]
  IC50: 20 nM
Hepatitis C virus [1]
  IC50: 226 nM
Albumin
  Activity: 99%

## CC(C)CCn1c(=O)c(C2=NS(=O)(=O)C3=C(CCNC3)N2)c(O)c2ccccc21
Hepatitis C virus [2]
  IC50: 604 nM
Hepatitis C virus [1]
  IC50: 12200 nM
Albumin
  Activity: 98.2%

## CC(C)CCn1c(=O)c(C2=NS(=O)(=O)c3cc(OCC(N)=O)ccc3N2)c(O)c2ccccc21
Hepatitis C virus [2]
  IC50: 6 nM
Hepatitis C virus [1]
  IC50: 15 nM
Albumin
  Activity: 99.2%

## NC(=O)COc1ccc2c(c1)S(=O)(=O)N=C(c1c(O)c3cccnc3n(CCC3CC3)c1=O)N2
Hepatitis C virus [2]
  IC50: < 5 nM
Hepatitis C virus [1]
  IC50: 51 nM
Albumin
  Activity: 97.8%

## CC(C)CCn1c(=O)c(C2=NS(=O)(=O)c3cc(O[C@H](C)C(N)=O)ccc3N2)c(O)c2sccc21
Hepatitis C virus [2]
  IC50: < 5 nM
Hepatitis C virus [1]
  IC50: 114 nM
Albumin
  Activity: 98.3%

## Cc1nn(C)c2c1S(=O)(=O)N=C(c1c(O)c3ccccc3n(CCC(C)C)c1=O)N2
Hepatitis C virus [2]
  IC50: 200 nM
Hepatitis C virus [1]
  IC50: > 20000 nM
Albumin
  Activity: 98.5%

## CC(C)CCn1c(=O)c(C2=NS(=O)(=O)C3=C(CCN(CCC#N)C3)N2)c(O)c2ccccc21
Hepatitis C virus [2]
  IC50: 132 nM
Hepatitis C virus [1]
  IC50: 4320 nM

## CC(C)CCn1c(=O)c(C2=NS(=O)(=O)c3c[n+]([O-])ccc3N2)c(O)c2ccccc21
Hepatitis C virus [2]
  IC50: 18 nM
Hepatitis C virus [1]
  IC50: 2380 nM
Albumin
  Activity: 97.7%

## CC(C)CCn1c(=O)c(C2=NS(=O)(=O)c3cc(Cl)sc3N2)c(O)c2ccccc21
Hepatitis C virus [2]
  IC50: 57 nM
Hepatitis C virus [1]
  IC50: > 20000 nM

## CC(C)CCn1c(=O)c(C2=NS(=O)(=O)C3=C(CCN(CC(=O)O)C3)N2)c(O)c2ccccc21
Hepatitis C virus [2]
  IC50: 276 nM
Hepatitis C virus [1]
  IC50: > 20000 nM

## CNC(=O)N1CCC2=C(C1)S(=O)(=O)N=C(c1c(O)c3ccccc3n(CCC(C)C)c1=O)N2
Hepatitis C virus [2]
  IC50: 774 nM
Albumin
  Activity: 98.2%

## CC(C)CCn1c(=O)c(C2=NS(=O)(=O)c3ncccc3N2)c(O)c2ccccc21
Hepatitis C virus [2]
  IC50: 31 nM
Hepatitis C virus [1]
  IC50: 743 nM
Albumin
  Activity: 98.7%

## CC(C)CCn1c(=O)c(C2=NS(=O)(=O)c3ccccc3N2)c(O)c2ccsc21
Hepatitis C virus [2]
  IC50: 132 nM
Hepatitis C virus [1]
  IC50: 1160 nM
Albumin
  Activity: > 99.9%

## CC(C)CCn1c(=O)c(C2=NS(=O)(=O)c3c(sc(Cl)c3Br)N2)c(O)c2ccccc21
Hepatitis C virus [2]
  IC50: 3020 nM

## CC(C)CCn1c(=O)c(C2=NS(=O)(=O)c3cc(OCC(N)=O)ccc3N2)c(O)c2sccc21
Hepatitis C virus [2]
  IC50: < 5 nM
Hepatitis C virus [1]
  IC50: 126 nM
Albumin
  Activity: 98.3%

## CC(C)CCn1c(=O)c(C2=NS(=O)(=O)c3cc(O[C@H](C)C(N)=O)ccc3N2)c(O)c2cccnc21
Hepatitis C virus [2]
  IC50: < 5 nM
Hepatitis C virus [1]
  IC50: 47 nM
Albumin
  Activity: 98.3%

## CC(C)CCn1c(=O)c(C2=NS(=O)(=O)c3ccccc3N2)c(O)c2cc(-c3ccccc3)sc21
Hepatitis C virus [2]
  IC50: > 30000 nM

## CC(C)CCn1c(=O)c(C2=NS(=O)(=O)c3cc(O)ccc3N2)c(O)c2ccsc21
Hepatitis C virus [2]
  IC50: 25 nM
Hepatitis C virus [1]
  IC50: 471 nM
Albumin
  Activity: 99.1%

## CC(C)CCn1c(=O)c(C2=NS(=O)(=O)c3ccccc3N2)c(O)c2cn[nH]c21
Hepatitis C virus [2]
  IC50: 4940 nM
Albumin
  Activity: 97.6%

## C[C@@H](Oc1ccc2c(c1)S(=O)(=O)N=C(c1c(O)c3cccnc3n(CCC3CC3)c1=O)N2)C(N)=O
Hepatitis C virus [2]
  IC50: < 5 nM
Albumin
  Activity: 97.8%
